In ChEMBL document CHEMBL2390861, “Caffeic acid derivatives: a new type of influenza neuraminidase inhibitors” (Bioorg Med Chem Lett, 2013):

Legend:
Neuraminidase [1] = target: T1, Neuraminidase (Influenza A virus, UniProt B4URF0); experiment: Inhibition of Influenza A virus (A/chicken/Sandong/Li/2008(H9N2)) neuraminidase N2 using 4-MU-NANA as substrate after 5 mins by fluorescence assay
Neuraminidase [2] = target: T1, Neuraminidase; experiment: Inhibition of Influenza A virus H1N1 A/duck/China/QJ/01 neuraminidase N1 using 4-MU-NANA as substrate after 5 mins by fluorescence assay
[3] = Cytotoxicity against chicken embryo fibroblast after 2 days by MTS assay; assay type: cell-based, Gallus gallus; conditions: chicken embryo fibroblasts
[4] = target: Neuraminidase (Influenza A virus) (UniProt B4URF0); experiment: Inhibition of Influenza A virus H1N1 A/duck/China/QJ/01 neuraminidase N1 using 4-MU-NANA as substrate at 100 uM after 5 mins by fluorescence assay
Influenza A virus = experiment: Antiviral activity against Influenza A virus (A/chicken/Sandong/Li/2008(H9N2)) infected in chicken embryo fibroblast assessed as protection against virus-induced cytopathic effect after 2 days by MTS assay; assay type: functional, organism-based; conditions: 48 h
Neuraminidase [5] = target: T1, Neuraminidase; experiment: Inhibition of Influenza A virus H9N2 neuraminidase
Neuraminidase [6] = target: T1, Neuraminidase; experiment: Inhibition of Influenza A virus H1N1 neuraminidase
Neuraminidase [7] = target: T1, Neuraminidase; experiment: Non-competitive inhibition of Influenza A virus (A/chicken/Sandong/Li/2008(H9N2)) neuraminidase N2 using 4-MU-NANA as substrate by Lineweaver-Burk plot analysis

SMILES	IC50 (Neuraminidase [1]) [µM]	IC50 (Neuraminidase [2]) [µM]	CC50 at 48 h [3] [µM]	other results
CC(C)C(=O)Nc1cc(NC(=O)/C=C/c2ccc(O)c(O)c2)ccc1OCC(=O)O	13	11.6	94.3	–
O=C(/C=C/c1ccccc1)Nc1ccc(O)c(NC(=O)C2CC2)c1	–	–	–	inhibition [4]: 42.6%
CC(C)C(=O)N[C@@H](CCCNC(=O)/C=C/c1ccc(O)c(O)c1)C(=O)O	30.3	31.9	65	–
O=C(/C=C/c1ccc(O)c(O)c1)NCCC[C@H](NC(=O)Cc1ccccc1)C(=O)O	28.1	30.2	87.7	–
O=C(/C=C/c1ccc(O)c(O)c1)N[C@@H](Cc1ccccc1)C(=O)O	39.6	37.4	–	–
O=C(O)CCNC(=O)/C=C/c1ccc(O)c(O)c1	13.5	27.3	> 100	EC50 (Influenza A virus): > 100 µM
O=C(/C=C/c1ccc(O)cc1)CC(=O)/C=C/c1ccc(O)c(O)c1	–	–	–	IC50 (Neuraminidase [5]): 64.1 µM
CC(=O)Nc1cc(NC(=O)/C=C/c2ccc(O)c(O)c2)ccc1OCC(=O)O	15.4	12.2	60.4	–
O=C(/C=C/c1ccc(O)c(O)c1)CC(=O)/C=C/c1ccc(O)c(O)c1	–	–	–	IC50 (Neuraminidase [5]): 63.8 µM
O=C(/C=C/c1ccc(O)c(O)c1)NCCC[C@H](NC(=O)c1ccccc1)C(=O)O	37.2	34.3	–	–
O=C(O)CCCNC(=O)/C=C/c1ccc(O)c(O)c1	16.8	27.7	–	–
CC(=O)Nc1cc(NC(=O)/C=C/c2ccc(O)c(O)c2)ccc1O	27.4	17.7	78.2	–
CC(C)C(=O)Nc1cc(NC(=O)/C=C/c2ccccc2)ccc1O	–	–	–	inhibition [4]: 47.2%
CC(C)C(=O)Nc1cc(NC(=O)/C=C/c2ccc(O)c(O)c2)ccc1O	20.4	19	–	–
CCOC(=O)C1=C[C@@H](OC(CC)CC)[C@H](NC(C)=O)[C@@H](N)C1 [OSELTAMIVIR]	–	–	> 10	EC50 (Influenza A virus): 0.5 µM
O=C(/C=C/c1ccc(O)c(O)c1)N[C@@H](Cc1c[nH]c2ccccc12)C(=O)O	27.2	30.1	89.5	EC50 (Influenza A virus): > 100 µM
COc1cc(O)ccc1C(=O)/C=C/c1ccc(O)cc1	–	–	–	IC50 (Neuraminidase [6]): 24.3 µM
O=C(/C=C/c1ccc(O)c(O)c1)Nc1ccc(O)c(NC(=O)C2CC2)c1	24.7	18.2	–	–
CCC(=O)Nc1cc(NC(=O)/C=C/c2ccc(O)c(O)c2)ccc1O	23.6	17.6	> 100	EC50 (Influenza A virus): 58.6 µM
O=C(O)CNC(=O)/C=C/c1ccc(O)c(O)c1	43.3	49.5	–	–
CC(=O)Nc1cc(NC(=O)/C=C/c2ccccc2)ccc1O	–	–	–	inhibition [4]: 40.2%
CCC(CC)C(=O)Nc1cc(NC(=O)/C=C/c2ccc(O)c(O)c2)ccc1OCC(=O)O	7.2	8.5	> 100	EC50 (Influenza A virus): 31.2 µM; Ki (Neuraminidase [7]): 11.5 µM
CCC(=O)Nc1cc(NC(=O)/C=C/c2ccccc2)ccc1O	–	–	–	inhibition [4]: 42.9%
CC(C)[C@H](NC(=O)/C=C/c1ccc(O)c(O)c1)C(=O)O	37.3	38.3	–	–
CCC(CC)C(=O)Nc1cc(NC(=O)/C=C/c2ccccc2)ccc1O	–	–	–	inhibition [4]: 45.2%
CC(C)(C)OC(=O)N[C@@H](CCCNC(=O)/C=C/c1ccc(O)c(O)c1)C(=O)O	33.6	34.7	–	–
CCC(CC)C(=O)Nc1cc(NC(=O)/C=C/c2ccc(O)c(O)c2)ccc1O	20.7	22.8	> 100	EC50 (Influenza A virus): 22.6 µM
CCC(=O)N[C@@H](CCCNC(=O)/C=C/c1ccc(O)c(O)c1)C(=O)O	37.9	31.3	–	–
O=C(O)COc1ccc(NC(=O)/C=C/c2ccc(O)c(O)c2)cc1NC(=O)C1CC1	16.5	13.8	86.7	–
CCC(CC)C(=O)N[C@@H](CCCNC(=O)/C=C/c1ccc(O)c(O)c1)C(=O)O	44.2	39.2	–	–
